From the supplement of paper PMC11061612 come the findings set out here.

Assay [1] has as its system C3A (Hepatocellular Carcinoma). In words: Bliss excess, mean over the matrix (fraction); higher = more synergy. The gist of the method: (§1)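 Bliss excess equals the observed combination effect minus the expected value EA + EB − EA·EB, where EA and EB are the effects of each agent alone. Combination Emax is the second-highest inhibition within the matrix. Inhibition was scaled from CellTiter-Glo 2.0 luminescence, with 0 set by vehicle wells and 1 by blank wells, after 72 hours of two-drug dosing of cells plated in 1536-well plates.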

Assay [2] deals with COR-L23 (Non-Small Cell Lung Carcinoma). The assay is described as above. The gist of the method:
as §1

In assay [3] the test system is DMS-273 (Small Cell Lung Carcinoma). Described as above. The gist of the method: as §1
In assay [4] the test system is HCC2157 (Breast Carcinoma). The assay is described as above. In outline: as §1
Assay [5] has as its system HT-29 (Colorectal Carcinoma). The assay is described as above. In outline: as §1
Another assay deals with NCI-H2595 (Mesothelioma). Described as above. The gist of the method:
as §1

The test system of a further assay is RH-1 (Ewing's Sarcoma). The assay is described as above. The gist of the method:
as §1

In assay [6] the test system is SW1783 (Low Grade Glioma). Described as above. The gist of the method:
as §1

The test system of assay [7] is SW756 (Cervical Carcinoma). The assay is described as above. In outline:
as §1

Assay [8] relates to SW780 (Bladder Carcinoma). The description is as above. In outline: as §1
In assay [9] the test system is U-266 (Plasma Cell Myeloma). The description is as above. In outline:
as §1

In assay [10] the test system is 697 (B-Lymphoblastic Leukemia). The experiment in a line: combination Emax (second highest fraction inhibited in the dose matrix, 72 h); higher = more inhibition; extreme values may be limits of the assay. The gist of the method:
as §1

The test system of assay [11] is DMS-273 (Small Cell Lung Carcinoma). The assay is described as above. In outline: as §1
Another assay concerns ES7 (Ewing's Sarcoma). The assay is described as above. The gist of the method:
as §1

Assay [12] deals with HPAC (Pancreatic Carcinoma). Described as above. The gist of the method:
as §1

In assay [13] the test system is JiyoyeP-2003 (Burkitt's Lymphoma). The assay is described as above. In outline: as §1
The subject of assay [14] is KM-H2 (Hodgkin's Lymphoma). Described as above. The gist of the method:
as §1

In assay [15] the test system is LU-99A (Non-Small Cell Lung Carcinoma). The assay is described as above. The gist of the method: as §1
Assay [16] relates to SUIT-2 (Pancreatic Carcinoma). Described as above. In outline: as §1
Assay [17] has as its system U-266 (Plasma Cell Myeloma). The description is as above. In outline: as §1

Each structure is given as a SMILES string.

On to `COc1cc2ncnc(Nc3ccc(F)c(Cl)c3)c2cc1OCCCN1CCOCC1` [Gefitinib] + CC(C)n1c(=O)n(C)c2cnc3cc(F)c(-c4ccc(OCCCN5CCCCC5)nc4)cc3c21 [AZD1390] (first compound max 10 µM, 7x7, partner max 0.3 µM), for which the Bliss excess is -0.11 in assay [1]; -0.069 in [2]; -0.0068 in assay [3]; -0.0136 in assay [4]; -0.0512 in assay [5]; -0.0596 with NCI-H2595 (Mesothelioma). Moreover, the Bliss excess is -0.0399 in the assay with RH-1 (Ewing's Sarcoma); -0.0571 in assay [6]; -0.0551 in assay [7]; -0.0642 in assay [8]; -0.0442 in [9]. In addition, the “combination Emax” value in assay [10] came to 0.422; in [11] it was 0.325; in the assay with ES7 (Ewing's Sarcoma) it was 0.385; in assay [12], 0.222; in assay [13], 0.119; in [14] it was 0.19. The “combination Emax” value in assay [15] was found to be 0.154; in assay [16], 0.111; in assay [17], 0.124.
On to `Cc1c2c(nn1C)CSCc1cc(n(C)n1)CSc1cc(c3ccccc3c1)OCCCc1c(C(=O)O)n(C)c3c-2c(Cl)ccc13` [AZD5991] + C1CN(CCC1(C(=O)N[C@@H](CCO)C2=CC=C(C=C2)Cl)N)C3=NC=NC4=C3C=CN4 [Capivasertib] (first compound max 1 µM, 7x7, partner max 3 µM), for which the Bliss excess in assay [1] is -0.0318; in assay [2], -0.0161; in [3], -0.0524; in assay [4], -0.0488; in assay [5], -0.0114; with NCI-H2595 (Mesothelioma) it was 0.0093. Besides, the Bliss excess in the assay with RH-1 (Ewing's Sarcoma) is 0.0157; in [6], -0.0145; in assay [7], -0.023; in [8] it was -0.011; in assay [9] it was 0.0662. In addition, the “combination Emax” value is 1 in assay [10]; 0.987 in assay [11]; 0.825 in the assay with ES7 (Ewing's Sarcoma); 0.13 in [12]; 0.857 in assay [13]; 0.143 in assay [14]. Also, the “combination Emax” value turned out to be 0.297 in assay [15], 0.149 in [16] and 0.97 in assay [17].
As for `CCN(CCO)CCCOc1ccc2c(Nc3cc(CC(=O)Nc4cccc(F)c4)[nH]n3)ncnc2c1` [AZD2811] + C=CCn1c(=O)c2cnc(Nc3ccc(N4CCN(C)CC4)cc3)nc2n1-c1cccc(C(C)(C)O)n1 [AZD1775] (first compound max 1 µM, partner max 1 µM), the Bliss excess was -0.0279 in assay [1]; -0.0043 in assay [2]; 0.0064 in assay [3]; -0.0071 in assay [4]; -0.0446 in assay [5]; -0.0509 with NCI-H2595 (Mesothelioma). The Bliss excess is -0.0163 in the assay with RH-1 (Ewing's Sarcoma); -0.073 in [6]; -0.01 in [7]; 0.0194 in assay [8]; 0.0031 in assay [9]. Further, the “combination Emax” value worked out at 1 in assay [10]; 0.827 in assay [11]; 0.783 with ES7 (Ewing's Sarcoma); 0.643 in assay [12]; 0.926 in [13]; 0.938 in assay [14]. Also, the entries for the “combination Emax” value in assay [15], in [16] and in [17] were 0.585, 0.625 and 0.605, respectively.
For `CCN(CCO)CCCOc1ccc2c(Nc3cc(CC(=O)Nc4cccc(F)c4)[nH]n3)ncnc2c1` [AZD2811] + C[C@@H]1COCCN1C2=NC(=NC(=C2)C3(CC3)[S@](=N)(=O)C)C4=C5C=CNC5=NC=C4 [AZD6738] (first compound max 1 µM, 7x7, partner max 10 µM), the Bliss excess in assay [1] was -0.0117; in assay [2], -0.0192; in assay [3] it was -0.0332; in assay [4], -0.0704; in assay [5], -0.0459; in the assay on NCI-H2595 (Mesothelioma), -0.0491. Besides, the Bliss excess in the assay with RH-1 (Ewing's Sarcoma) was -0.0414; in [6], -0.0501; in [7] it was -0.0095; in [8], -0.0262; in assay [9] it was -0.0532. Also, the “combination Emax” value was determined as 1 in [10]; 0.771 in assay [11]; 0.865 in the assay with ES7 (Ewing's Sarcoma); 0.583 in [12]; 0.93 in [13]; 0.766 in [14]. The “combination Emax” value in assay [15] was 0.659; in assay [16], 0.575; in assay [17], 0.426.
`Cc1cc2ncnn2cc1Nc1ncc2c(n1)n(C1CCOCC1)c(=O)n2C` [AZD7648] + O=C(c1cc(Cc2n[nH]c(=O)c3ccccc23)ccc1F)N1CCN(C(=O)C2CC2)CC1 [Olaparib] (first compound max 10 µM, 7x7, partner max 10 µM): the Bliss excess in [1] was -0.0505; in assay [2], 0.0328; in assay [3], 0.0268; in assay [4], 0.0073; in assay [5] it was -0.0265; in the assay on NCI-H2595 (Mesothelioma), -0.0258. In addition, the Bliss excess in the assay on RH-1 (Ewing's Sarcoma) was -0.0115; in assay [6] it was -0.042; in assay [7], -0.0174; in assay [8], -0.0289; in assay [9], -0.0247. For the same molecule, the “combination Emax” value in [10] came to 0.988; in assay [11], 0.553; in the assay on ES7 (Ewing's Sarcoma), 0.846; in assay [12], 0.0971; in assay [13], 0.423; in [14], 0.349. Also, the results for the “combination Emax” value in assay [15], in assay [16] and in assay [17] were 0.55, 0.205 and 0.335, respectively.
For the molecule `CN(CCO)CC[C@H](CSc1ccccc1)Nc1ccc(S(=O)(=O)NC(=O)c2ccc(N3CCC([C@@H](O)c4ccccc4-c4ccc(Cl)cc4)CC3)cc2)cc1S(=O)(=O)C(F)(F)F` [AZD4320] + Cn1cnc2c(F)c(Nc3ccc(Br)cc3Cl)c(C(=O)NOCCO)cc21 [Selumetinib] (first compound max 1 µM, 7x7, partner max 3 µM), the Bliss excess in assay [1] was 0.141; in assay [2] it was 0.0645; in assay [3] it was -0.0768; in [4] it was 0.0119; in assay [5], 0.02; in the assay on NCI-H2595 (Mesothelioma) it was 0.04. Moreover, the Bliss excess with RH-1 (Ewing's Sarcoma) was 0.0015; in assay [6], -0.0419; in assay [7], 0.0022; in [8], 0.0441; in assay [9], 0.13. The “combination Emax” value was found to be 1 in assay [10]; 0.349 in assay [11]; 0.984 with ES7 (Ewing's Sarcoma); 0.865 in assay [12]; 0.84 in [13]; 0.296 in assay [14]. Further, the “combination Emax” value in [15] stood at 0.87; in [16], 0.406; in assay [17], 0.938.
